Test results published in patent US4788304A, “Phospholipase A2 inhibitors” (American Home Products Corporation, priority 1987, dated 1988).
Where two headings read alike, the source gives them in different places.

Assays:
[1] = system: synthesis of LTB4 by rat glycogen-elicited polymorphonuclear leukocytes (PMN); experiment: Inhibition of LTB4 synthesis by rat glycogen-elicited polymorphonuclear leukocytes (PMN); type: cell-based, rat (female Wistar); conditions: Leukocyte, A23187-stimulated rat PMN
human platelet PLA2 = target: T1, human platelet PLA2 (Homo sapiens, UniProt P14555); experiment: Inhibition of cell free human platelet PLA2 (hydrolysis of [3H]-AA labelled E. coli phospholipids); type: biochemical; conditions: for inhibition at 50 µM: pH 7.4, 37° C.
T1 construct: The PLA2 enriched supernatant fluid is removed and the amount of protein is determined by the Lowry method; from tissue; host or cells: expired human platelets from the blood bank (acid extract, not purified)
T1 sequence (P14555 21-144): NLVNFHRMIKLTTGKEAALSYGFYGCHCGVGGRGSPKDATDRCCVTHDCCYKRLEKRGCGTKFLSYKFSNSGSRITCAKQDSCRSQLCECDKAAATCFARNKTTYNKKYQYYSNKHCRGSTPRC
Method: The ability of the compounds in the scope of the invention to inhibit the activity of cell free human platelet PLA2 enzyme is measured in the following in vitro assay.
E. coli, cultured to exponential growth, are sedimented for 15 minutes at 10,000 g and resuspended in sterile isotonic saline (1-3 ml). 10-25 μCi uniformly labeled [^3 H]-arachidonic acid (AA) is added to a sterile flask, evaporated by N2 and resolubilized with 0.3 ml 20% fatty acid-free bovine serum albumen (BSA). 75-100 ml of nutrient broth and 1 ml E. coli are then added to each flask and incubated for 2-3 hours at 37° C. [^3 H]-AA labelled E. coli are then sedimented, suspended in saline and added to fresh nutrient broth and incubated for 1.5 hours at 37° C. to complete [^3 H]-AA incorporation into the phospholipids. After overnight refrigeration of cultures, E. coli are again sedimented, suspended in saline and autoclaved for 15 minutes at 120° C. E. coli cultures are washed twice with saline (first wash contains 1 % BSA) and resuspended in saline. Non-labelled E. coli cultures are also prepared in the same manner. Cell number is determined by measuring the optical density at […] (3×10 cell/ml=1 O.D.). The amount of radioactivity associated with cells is determined by counting a defined volume of cell suspension. The specific activity is subsequently adjusted by adding non-labelled E. coli to yield 2-4×10 cpm per 1×10^10 E. coli.
Expired human platelets from the blood bank are centrifuged for 15 minutes at 200 g to obtain a platelet rich fraction and to remove the red blood cells. Platelets are sedimented for 15 minutes at 2500 g and the plasma is removed before adding cold 0.18N H2 SO4 (4 ml/unit). Platelets are homogenized, incubated for 1 hour at 4° C., homogenized again and centrifuged for 15 minutes at 10,000 g. The PLA2 enriched supernatant fluid is removed and the amount of protein is determined by the Lowry method. The preparation is divided into various portions and stored at -20° C.
The assay measures the hydrolysis of E. coli membrane phospholipids and the release of free [^3 H]-AA from the C-2 position of phospholipids by human platelet PLA2. To ice cold 15×100 mm test tubes, the following additions are made; 2.5×10^8 E. coli (equivalent to 5 nmol phospholipid), 5 mM Ca++, 100 mM Tris buffer (pH=7.4), 100 μg platelet extract (or an amount to produce 20-30% hydrolysis), drug or vehicle. Incubation are carried out at 37° C. in a shaking water bath for 30 minutes. The reaction is terminated by the addition of 2 volumes of tetrahydrofuran (THF) and the mixture is vortexed. Hydrolyzed [^3 H]-AA is separated from unhydrolyzed phospholipid by solid phase extraction using Bond elute NH2 columns (Analytichem Intermat.). Columns are conditioned with 0.5 ml THF followed by 0.5 ml THF:H2 O (2.0:0.1 ml v/v). Samples are loaded onto columns and hydrolyzed [^3 H]-AA is eluted with 1 ml THF:glacial acetic acid (98.0:2.0 ml v/v). The elutant is transferred to vials, 10 ml Optifluor is added and the radioactivity is determined by liquid scintillation counting.
Treatments are corrected for non-enzymatic hydrolysis by subtracting the dpms in treatments containing no enzyme. Mean [^3 H]-AA dpm is determined and a percent inhibition relative to vehicle treated samples is calculated.
The percent hydrolysis is calculated by the following equation: [formula]

[2] = system: synthesis of the arachidonic acid cyclooxygenase oxidation product TxB2; experiment: Inhibition of TxB2 synthesis (cyclooxygenase product) by rat polymorphonuclear leukocytes; type: cell-based, rat (female Wistar); conditions: Leukocyte, A23187-stimulated rat PMN
[3] = system: Naja mocambique mocambique PLA2; experiment: Vascular cutaneous permeability induced by snake venom PLA2 in guinea pigs; type: in vivo, guinea pig (Hartley); conditions: for % Inhibition (PLA2-induced vascular permeability): standard drug
[4] = system: rat carrageenan paw edema; experiment: Rat carrageenan paw edema; type: in vivo, rat (Sprague-Dawley); conditions: 3 h; for % Inhibition of paw edema: at 50 mg/kg (peroral), 1 h prior to carrageenan
Method: The compounds in the scope of the invention are further tested in the rat carrageenan paw edema to determine their ability to inhibit the acute inflammatory response.
[…] male Sprague-Dawley rats, in groups of 6 animals are injected subcutaneously in the right paw with 0.1 ml of 1% carrageenan at zero time. Mercury plethysmographic readings (ml) of the paw are made at zero time and 3 hours later. Test compounds are suspended or dissolved in 0.5% methylcellulose and given perorally 1 hour prior to carrageenan administration.
The increase in paw volume (edema in ml.) produced by the carrageenan is measured. Paw edema is calculated (3 hour volume minus zero time volume), and percent inhibition of edema is determined. Unpaired Student's t-test is used to determine statistical significance.

[5] = system: TPA-induced mouse ear edema; experiment: TPA-induced murine ear edema test; type: in vivo, mouse (Swiss Webster); conditions: 1 mg/ear, 30 min after TPA, measured 4 h after TPA
[6] = system: AA-induced mouse ear edema; experiment: Arachidonic acid (AA)-induced murine ear edema test; type: in vivo, mouse (Swiss Webster); conditions: 1 mg/ear, 30 min prior to AA, measured 1 h after AA
[7] = system: oxazolone-induced contact hypersensitivity in the mouse ear; experiment: Oxazolone-induced contact hypersensitivity in the mouse ear; type: in vivo, mouse (Swiss Webster); conditions: dosed at 1 mg/ear
Method: The assay of this Example measures the ability of the compounds in the scope of the invention to inhibit oxazolone-induced contact hypersensitivity in the mouse ear.
Female, Swiss Webster mice (8 weeks old) are placed into groups of 6 and the abdominal area of each is shaved. The mice are sensitized to oxazolone (4-ethoxymethylene-2-phenyl-oxazol-5-one) by applying 100 μl of a 2% solution in 95% alcohol directly onto the shaved abdomen using an automatic pipette and rubbing the residual oxazolone into the skin with a round wooden stick. Six days after sensitization each mouse is challenged by applying 20 μl of a 2% oxazolone solution in 95% alcohol to the right ear (10 μl on each side) and 20 μl of alcohol alone to the left ear. Compounds for topical applications are prepared in acetone and administered to the right ear 30 min after challenge or 30 min prior to and 5 h after challenge; acetone (vehicle) is applied to the left ear. Compounds for oral administration are suspended in 0.5 ml of 0.5% methyl cellulose and given ten min prior to challenge. Ear thickness of both ears is measured in mm×10^-2 at 24 and 48 h after challenge using an Oditest caliper. Edema is calculated by subtracting the left ear thickness from the right ear thickness. Drug effects are determined by calculating the percentage change from control for each time period.

[8] = cell free human platelet PLA2, pH 7.4, 37° C., 30 min, read-out: IC50 (PLA2)

SMILES	inhibition at 10 µM [1] [%]	inhibition at 50 µM (human platelet PLA2; 30 min) [%]	IC50 (human platelet PLA2; [8]) [µM]	inhibition at 10 µM [2] [%]	further results
COC(=O)C1(C(F)(F)CCCCOc2ccc(Cl)cc2)CO1 (centres unmarked) [6 (gem-difluoro compound), 2-[5-(4-Chlorophenoxy)-1,1-difluoropentyl]-2-oxiranecarboxylic acid methyl ester]	7	91.1	8.4	44	
COC(=O)C1(C(F)CCCCc2ccccc2)CO1 (single isomer, unassigned) [Example 1 (isomer A), 2-(1-Fluoro-5-phenylpentyl)-2-oxiranecarboxylic acid methyl ester (isomer A)]		88	2.6		
NC1=NN(c2cccc(C(F)(F)F)c2)CC1 [BW 755c]					% Inhibition (PLA2-induced vascular permeability) ([3]; 200 mg/kg p.o.): 65.3%
C[C@@H]1C[C@H]2[C@@H]3CCC4=CC(=O)C=C[C@]4(C)[C@@]3(F)[C@@H](O)C[C@]2(C)[C@@]1(O)C(=O)CO [Dexamethasone]					% Inhibition (PLA2-induced vascular permeability) ([3]; 10 mg/kg p.o.): 49.0%
COC(=O)C1(C(F)CCCCCOc2ccc(Cl)cc2)CO1 (single isomer, unassigned) [3 (isomer A), 2-[6-(4-Chlorophenoxy)-1-fluorohexyl]-2-oxiranecarboxylic acid methyl ester (isomer A)]		84.6	19.2		
O=C(CBr)c1ccc(Br)cc1 [para-Bromophenacyl bromide, reference compound]					IC50 (human platelet PLA2): 23.7 µM
CN(C)CCC(c1ccc(Cl)cc1)c1ccccn1 (centres unmarked) [Chlorpheniramine]					% Inhibition (PLA2-induced vascular permeability) ([3]; 2 mg/kg p.o.): 45.0%
COC(=O)C1(C(F)=CCCCOc2ccc(Cl)cc2)CO1 (centres unmarked) [6 (fluoro-vinyl compound), 2-[5-(4-Chlorophenoxy)-1-fluoro-1-pentenyl]-2-oxiranecarboxylic acid methyl ester]	15	99.5	3	33	% Inhibition, iv at 100 mg/kg (PLA2-induced vascular permeability) [3]: 32%; % Inhibition of paw edema [4]: 26%
COC(=O)C1(C(F)CCCCOc2ccc(Cl)cc2)CO1 (single isomer, unassigned) [2 (isomer A), 2-[5-(4-Chlorophenoxy)-1-fluoropentyl]-2-oxiranecarboxylic acid methyl ester (isomer A)]		83.8	13.8		
CCOC(=O)C1(CCCCCc2ccc(Cl)cc2)CO1 (centres unmarked) [Example 10, 2-[5-(4-Chlorophenyl)pentyl]-2-oxiranecarboxylic acid ethyl ester]	23	97.2	1.6	4	% Inhibition, iv at 100 mg/kg (PLA2-induced vascular permeability) [3]: 24.1%; Mouse Ear Edema Assay, % Change from Control, TOPICAL, TPA [5]: -45%; % Inhibition of paw edema [4]: 42%; Mouse Ear Edema Assay, % Change from Control, TOPICAL, AA [6]: -73%
COC(=O)C1(C(=O)CCCCCOc2ccc(Cl)cc2)CO1 (centres unmarked) [Example 7A, 2-[6-(4-Chlorophenoxy)-1-oxohexyl]-2-oxiranecarboxylic acid methyl ester]	30	88.4	7.1	38	Mouse Ear Edema Assay, % Change from Control, TOPICAL, TPA [5]: -70%; % Inhibition of paw edema [4]: 53%; Mouse Ear Edema Assay, % Change from Control, TOPICAL, AA [6]: -59%
COC(=O)C1(C(=O)CCCCc2ccccc2)CO1 (centres unmarked) [Example 9, 2-(5-Phenyl-1-oxopentyl)-2-oxiranecarboxylic acid methyl ester]	7	81.8	3.2	1	% Inhibition of paw edema [4]: 27%; % Inhibition (oxazolone contact hypersensitivity) [7]: 22.0%
COC(=O)C1(C(F)(F)CCCCCOc2ccc(Cl)cc2)CO1 (centres unmarked) [7 (gem-difluoro compound), 2-[6-(4-Chlorophenoxy)-1,1-difluorohexyl]-2-oxiranecarboxylic acid methyl ester]	58	82	11.3	43	
COC(=O)C1(C(F)CCCCCOc2ccc(Cl)cc2)CO1 (single isomer, unassigned) [Example 3, 2-[6-(4-Chlorophenoxy)-1-fluorohexyl]-2-oxiranecarboxylic acid methyl ester]	17			34	
COc1ccc2c(c1)c(CC(=O)O)c(C)n2C(=O)c1ccc(Cl)cc1 [Indomethacin, reference compound]					% Inhibition (PLA2-induced vascular permeability) ([3]; 50 mg/kg p.o.): 15.0%; ED50 ([4]; Rattus norvegicus, po, read-out: Oral ED50 (95% C.L.)): 3.7 mg/kg
CCCCC/C=C\C/C=C\C/C=C\C/C=C\CCCC(=O)O [Arachidonic Acid, reference compound]					IC50 (human platelet PLA2): 10.1 µM
